Drawing on patent publication US20250177383A1, “DI-CYCLOPROPYL BASED IL-17A MODULATORS AND USES THEREOF” (DICE ALPHA, INC., priority 2022, published 2025), this text covers AUC(0-t) and microsomal CLint for twelve compounds.

Where only a bound is given, the exact number is not on record here.

The nature of data set [1]: Rat pharmacokinetics, PO. It is filed as in vivo. The note with it: male rat, PO 5 mg/kg oral gavage, plasma, Linear/log trapezoidal; read-out: Rat PO AUC0-t. The method, then: Formulations for PO. An appropriate amount of the test article is weighed and mixed with the appropriate volume of vehicle to get a clear solution or a uniform suspension, vortexing or sonication in water bath may used. Animals are dosed within four hours after the formulation is prepared.
Formulation samples are removed from each of the formulation solutions or suspensions, transferred into 1.5 mL of polypropylene microcentrifuge tubes and run dose validated by LC/UV or LC-MS/MS.
Dose administration. For PO dosing, the dose formulation is administered via oral gavage.
Blood Collection. Each blood collection (about 0.2 mL per time point) is performed from carotid artery cannula (CAC) of each animal into a pre-chilled commercial EDTA-K2 tubes as anti-coagulant, then placed on wet ice until centrifugation. Blood samples are processed for plasma by centrifugation at approximately 4° C., 3,200 g for 10 min. Plasma is collected respectively and a certain amount of plasma from rat is transferred into pre-labeled 96 well plate or polypropylene tubes, quick frozen over dry ice and kept at −60° C. or lower until LC-MS/MS analysis. After terminal collection, all plasmas are stored at approximately −80° C. freezer until final analysis.
Plasma concentration versus time data are plotted in graph and analyzed by non-compartmental approaches using the Phoenix WinNonlin 6.3 software program. Trapezoids: Before TMax (Linear); After Tmax (Log). Partial Area Interpolations: Before TMax (Linear); After Tmax (Log).

Data set [2] is described as follows: Microsomal stability, rat liver microsomes. It counts as in vitro ADME. The note with it: SD rat liver microsomes 0.5 mg protein/mL, 1 μM test compound, NADPH, 37° C., 60 min; read-out: RLM Clint. The method, then: (§1) Test compound and control working solution preparation. 5 μL of a compound and control stock solution (10 mM in dimethyl sulfoxide (DMSO)) were diluted with 495 μL of acetonitrile (ACN).
(§2) NADPH cofactor preparation. The appropriate amount of NADPH powder was weighed and diluted into a 10 mM MgCl2 solution (working solution concentration: 10 mM; final concentration in reaction system: 1 mM). Materials: NADPH powder: β-Nicotinamide adenine dinucleotide phosphate reduced form, tetrasodium salt; NADPHA4Na (Vendor: Chem-Impex International, Cat. No. 00616).
(§3) Liver Microsome Preparation. The appropriate concentrations of microsome working solutions were prepared in 100 mM potassium phosphate buffer. Materials: Human Liver Microsomes (HLM) Cat No. 452117 and Lot No. 38295 (Corning); SD Rat Liver Microsomes (RLM) Cat No. R1000 and Lot No. 1910100 (Xenotech).
(§4) Stop solution preparation. Cold (4° C.) acetonitrile (ACN) containing 200 ng/mL tolbutamide and 200 ng/mL labetalol as internal standards (IS) were used as the stop solution.
(§5) Assay Procedure. Empty incubation plates (T60 and NCF60) were warmed for 10 mins prior to use. Liver microsomes were diluted to 0.56 mg/mL in 100 mM phosphate buffer. 445 uL microsome working solutions (0.56 mg/mL) were transferred into pre-warmed ‘Incubation’ plates T60 and NCF60, Then ‘Incubation’ plates T60 and NCF60 were pre-incubated for 10 min at 37° C. with constant shaking. 54 μL liver microsomes were transferred to the blank plate, then 6 μL NAPDH cofactor were added to the blank plate, followed by the addition 180 μL quenching solution to the blank plate. 5 μL compound working solution (100 μM) were added into ‘incubation’ plates (T60 and NCF60) containing microsomes and mixed thoroughly 3 times. To the NCF60 plate 50 μL of buffer were added and mixed 3 times thoroughly. Start timing; plate was incubated at 37° C. for 60 min while shaking. In ‘Quenching’ plate TO, were added 180 μL quenching solution and 6 μL NAPDH cofactor. Plate is chilled to prevent evaporation. The T60 plate, was mixed 3 times thoroughly, and immediately 54 μL of the mixture was removed for the 0-min time point to ‘Quenching’ plate. Then 44 μL NAPDH cofactor was added to the incubation plate (T60). Start timing; plate was incubated at 37° C. for 60 min while shaking. Final concentrations of each component in the incubation media: Microsome (0.5 mg protein/mL); Test compound (1 μM); control compound ([…]); ACN (0.99%); and DMSO (0.01%). At 5, 15, 30, 45, and 60 min, 180 μL quenching solution was added to ‘Quenching’ plates, mixed once, and serially transferred 60 μL of sample from T60 plate per time point to ‘Quenching’ plates. For the NCF60 plate, mix once and 60 μL of sample was transferred from the NCF60 incubation to ‘Quenching’ plate containing quenching solution at the 60-min time point (Start time 1:00:00 and End Time 0:00:00).
(§6) All sampling plates were shaken for 10 min, then centrifuged at 4000 rpm for 20 minutes at 4° C. 80 μL of supernatant were transferred into 240 μL HPLC water, and mixed by plate shaker for 10 min. Each bioanalysis plate was sealed and shaken for 10 minutes prior to LC-MS/MS analysis.

The nature of data set [3]: Microsomal stability, human liver microsomes. It counts as in vitro ADME. The note with it: human liver microsomes 0.5 mg protein/mL, 1 μM test compound, NADPH, 37° C., 60 min; read-out: HLM Clint. Here is the method:
as §1, §2, §3, §4, §5, §6
In general terms: Liver microsomes are vesicles of endoplasmic reticulum, rich in cytochrome P450 enzymes.

Regarding `CCn1nccc1C(=O)N[C@H](C(=O)Nc1ccc([C@H](C)[C@@H](NC(=O)COC)C(=O)N2CCN(C)CC2)cc1F)[C@H]1CC[C@H](C)CC1` [K, reference compound], in data set [1], the AUC(0-t) lay within 500 to 1000 ng·h/mL. For the same compound, the results for the microsomal CLint at 1 μM in data set [2] and in data set [3] were less than 9.6 µL/min/mg and more than 150 µL/min/mg, respectively.

As to `CCn1nccc1C(=O)N[C@H](C(=O)Nc1ccc([C@H](C)[C@@H](NC(C)=O)C(=O)N2CCN(C)[C@H](C)C2)cc1F)[C@H]1CC[C@H](C)CC1` [C, reference compound], the AUC(0-t) in data set [1] was less than 500 ng·h/mL. Also, the microsomal CLint at 1 μM is more than 20 µL/min/mg in data set [2] and more than 150 µL/min/mg in data set [3].

Take `CCn1nccc1C(=O)N[C@H](C(=O)Nc1ccc([C@H](C)[C@@H](NC(=O)COC)C(=O)N2CCN(C)[C@H](C)C2)cc1F)[C@H]1CC[C@H](C)CC1` [D, reference compound]: in data set [1], the AUC(0-t) is 500 to 1000 ng·h/mL. Moreover, the microsomal CLint at 1 μM lay within 9.6 to 20 µL/min/mg in data set [2] and 50 to 150 µL/min/mg in data set [3].

For the compound `CCC(=O)N[C@@H](C(=O)N1CCN(C)[C@H](C)C1)[C@@H](C)c1ccc(NC(=O)[C@@H](NC(=O)c2ccnn2CC)[C@H]2CC[C@H](C)CC2)c(F)c1` [G, reference compound], the AUC(0-t) in data set [1] lay in the range of 500 to 1000 ng·h/mL. Also, the microsomal CLint at 1 μM in data set [2] was more than 20 µL/min/mg; in data set [3], more than 150 µL/min/mg.

In the case of `CCC(=O)N[C@@H](C(=O)N1CCN(C)[C@H](C)C1)[C@@H](C)c1ccc(NC(=O)[C@@H](NC(=O)c2ccnn2CC(F)F)[C@H]2CC[C@H](C)CC2)c(F)c1` [E, reference compound], the AUC(0-t) in data set [1] is 500 to 1000 ng·h/mL. The microsomal CLint at 1 μM in data set [2] was 9.6 to 20 µL/min/mg; in data set [3], more than 150 µL/min/mg.

Regarding `CCC(=O)N[C@@H](C(=O)N1C[C@@H](C)N(C)C[C@H]1C)[C@@H](C)c1ccc(NC(=O)[C@@H](NC(=O)c2ccnn2CC)[C@H]2CC[C@H](C)CC2)c(F)c1` [A, reference compound], in data set [1], the AUC(0-t) lay within 500 to 1000 ng·h/mL. Further, the microsomal CLint at 1 μM in data set [2] was more than 20 µL/min/mg; in data set [3] it was 50 to 150 µL/min/mg.

For the compound `CCn1nccc1C(=O)N[C@H](C(=O)Nc1ccc([C@H](C)[C@@H](NC(=O)COC)C(=O)N2CCN(C)[C@@H](CF)C2)cc1F)[C@H]1CC[C@H](C)CC1` [B, reference compound], in data set [1], the AUC(0-t) was less than 500 ng·h/mL. Besides, the microsomal CLint at 1 μM lay in the range of 9.6 to 20 µL/min/mg in data set [2] and 50 to 150 µL/min/mg in data set [3].

Regarding `CCn1nccc1C(=O)N[C@H](C(=O)Nc1ccc([C@H](C)[C@@H](NC(=O)N(C)C2CC2)C(=O)N2CCN(C)CC2)cc1F)[C@H]1CC[C@H](C)CC1` [J, reference compound], in data set [1], the AUC(0-t) was less than 500 ng·h/mL. Further, the microsomal CLint at 1 μM was more than 20 µL/min/mg in data set [2] and more than 150 µL/min/mg in data set [3].

For `CCC(=O)N[C@@H](C(=O)N1CCN(C)[C@@H](C)C1)[C@@H](C)c1ccc(NC(=O)[C@@H](NC(=O)c2ccnn2CC)[C@H]2CC[C@H](C)CC2)c(F)c1` [I, reference compound], in data set [1], the AUC(0-t) is less than 500 ng·h/mL. For the same compound, the results for the microsomal CLint at 1 μM in data set [2] and in data set [3] were 9.6 to 20 µL/min/mg and more than 150 µL/min/mg, respectively.

Turning to `CCC(=O)N[C@@H](C(=O)N1CCN(C)CC1)[C@@H](C)c1ccc(NC(=O)[C@@H](NC(=O)c2ccnn2C(C)C)[C@H]2CC[C@H](C)CC2)c(F)c1` [L, reference compound], the AUC(0-t) in data set [1] lay in the range of 500 to 1000 ng·h/mL. For the same compound, the microsomal CLint at 1 μM was 9.6 to 20 µL/min/mg in data set [2] and more than 150 µL/min/mg in data set [3].

`CCC(=O)N[C@@H](C(=O)N1CCN(C)[C@H](C)C1)[C@@H](C)c1ccc(NC(=O)[C@@H](NC(=O)C2(F)CC2)[C@H]2CC[C@H](C)CC2)c(F)c1` [H, reference compound]: the AUC(0-t) in data set [1] is less than 500 ng·h/mL. The microsomal CLint at 1 μM in data set [2] was in the range of 9.6 to 20 µL/min/mg; in data set [3], 50 to 150 µL/min/mg.

In the case of `CCC(=O)N[C@@H](C(=O)N1CCN(C)[C@H](C)C1)[C@@H](C)c1ccc(NC(=O)[C@@H](NC(=O)c2ccnn2CCF)[C@H]2CC[C@H](C)CC2)c(F)c1` [F, reference compound], the AUC(0-t) in data set [1] fell in the range of 500 to 1000 ng·h/mL. Besides, the microsomal CLint at 1 μM lay in the range of 9.6 to 20 µL/min/mg in data set [2] and 50 to 150 µL/min/mg in data set [3].
